{
  "source": "patent US20150053211A1",
  "about": "“Cleaning and safe mouth guard solution” (priority 2013, published 2015)",
  "key": {"[1]": {"tested_on": "S. aureus", "assay": "Kill tests using S. aureus (SIK test)", "assay_type": "cell-based", "conditions": "LAE.HCl at 200 ppm versus a product containing 27% ethanol and 1890 ppm of essential oils", "method": "One of the commercial products that was analyzed not only contains a large amount of ethanol, but contains three essential biocidal oils. Specifically it contains 900 ppm of eucalyptol, 490 ppm of Thymol, and 500 ppm of D-menthol, for a total of 1890 ppm of total active constituents. In contrast our invention is N^α-lauroyl-L-arginine-ethyl ester hydrochloride, also known as LAE.HCl, which is used as a preservative in the food and cosmetic industries. • 1. N^α—lauroyl-L-arginine-ethyl ester hydrochloride, (LAE.HCl) salt is naturally derived and metabolizes readily to L-arginine, an essential amino acid, lauric acid, and very low ppm amounts of ethanol. All degradation by products are found naturally in the body and are totally harmless. • 2. LAE.HCl has undergone extensive toxicity, and safety studies, and it is approved by the FDA and EPA for food and cosmetic industries. • 3. […] The formulation of our invention includes a natural sweetener xylitol. Xylitol is known to reduce cavities as well as inhibiting the adhesion of bacteria on enamel/dentin. The selection of xylitol has the above advantages over other natural or synthetic sweeteners. (“Science Daily”, Feb. 15, 2007) • 5. Substantivity product of this invention has been proven experimentally versus the existing commercial products resulting in longer-lasting efficacy, using a zone of inhibition tests\n1. […]"}, "[2]": {"tested_on": "S. aureus", "assay": "Substantivity test on 100% cotton fabric, zone of inhibition (ZOI)", "assay_type": "cell-based", "conditions": "600 ppm, dried on 100% cotton fabric, saliva added to plates", "method": "2. Substantivity tests on 100% cotton fabric using S. aureus as the microorganism/zone of inhibition (ZOI).\nBoth samples (600 ppm LAE.HCl and control) were applied to 100% cotton fabric at the same volumes and allowed to dry at room temperature. Samples were then placed in an agar plates inoculated with S. aureus and incubated. To these plates was added saliva from the same person to determine if either sample would produce a zone inhibition. A negative control was also run at the same time. Only the product of this invention gave a positive ZOI."}},
  "data": [
    {"smiles": "CCCCCCCCCCCC(=O)N[C@@H](CCCNC(=N)N)C(=O)OCC.Cl", "note": "[LAE.HCl, N^α-lauroyl-L-arginine-ethyl ester hydrochloride]", "values": [
      {"measurement": "kill", "setting": "[1]", "result": "comparable kill"},
      {"measurement": "zone of inhibition (ZOI)", "setting": "[2]", "result": "positive ZOI"}
    ]}
  ]
}
